Laboratory results reported in PubChem BioAssay AID1918999 (Molecular Pharmacology Branch, DTP, NCI, 2023).

Test system: 556581-035-R-J1-PDC complex spheroid growth
Experiment: Anticancer human tumor 556581-035-R-J1-PDC patient-derived ovarian carcinoma cell line growth inhibition [AhR]
Details: for viability, T/C: stronger effect = lower value
Description: Multicellular complex tumor spheroid response to aryl hydrocarbon receptor antagonists in combination with a variety of drugs and investigational agents in selected tumor cell lines
The current study was undertaken to assess response to aryl hydrocarbon receptor antagonists in combination with standard-of-care drugs and investigational agents in solid tumor complex spheroid models. Complex spheroids include a stromal component modeled by human endothelial cells (HUVEC) and fibroblasts modeled by human mesenchymal stem cells (MSCs). The concentration ranges selected for each drug and investigational agent were based upon clinically achievable concentrations if the clinical Cmax of the agent was known.
Compounds. The drugs and investigational agents: BAY 2416964 (NSC825713), GNF351 (NSC835774), CH-223191 (NSC835775), CPI-455 (NSC825282), aza-TdCyd (NSC777586), decitabine (NSC127716), belinostat (NSC758774), entinostat (NSC756642), pevonedistat (NSC761192), tazemetostat (NSC777109), talazoparib (NSC765396), olaparib (NSC753686), selinexor (NSC780203), nedisertib (M3814, NSC802822), bortezomib (NSC756655), venetoclax (NSC766270), doxorubicin (NSC123127), elimusertib (BAY189344, NSC800525), ceralasertib (AZD6738, NSC777638), TAK-243 (NSC785004), alisertib (NSC759677), etoposide (NSC141540), topotecan (NSC609699), eribulin (NSC707389), gemcitabine (NSC613327), carboplatin (NSC241240), cisplatin (NSC119875), and SN-38 (NSC673596) were obtained from the National Cancer Institute (NCI) Developmental Therapeutics Program Chemical Repository (32). The FDA-approved anticancer drug set is available from the Developmental Therapeutics Program at https://dtp.cancer.gov/organization/dscb/obtaining/available plates.htm. […] The stock solutions were prepared in dimethyl sulfoxide (DMSO, Sigma-Aldrich, St. Louis, MO, cat. D2650), except for the platinum compounds which were prepared in saline (Quality Biological, Gaithersburg, MD, cat. 114-055-101), at 800-fold the tested concentration and stored at -70 degrees C prior to their use. All drugs and investigational agents were tested over a range starting from a high concentration at or near the clinical Cmax and decreasing in half-log increments. If the clinical Cmax for an agent had not been determined, the highest concentration tested was 10 microM (Table 1).
Cell Culture. All cells were maintained in an incubator at 37 degrees C and 5% CO2 with 95% humidity. The PDC lines were cultured according to standard operating procedures established by the NCI PDMR (https://pdmr.cancer.gov). Briefly, all PDCs were thawed and cultured in Matrigel-coated flasks prepared with a working solution of 1X Ham's F-12 nutrient mix, without supplementation (Invitrogen, Waltham, MA, cat. 11765054), 100 U/mL penicillin-streptomycin (Invitrogen, cat. 15140122), and 2.5% Matrigel (Corning Inc., Corning, NY, cat. 354248) for the first three passages. All PDCs were cultured in complete DMEM/F-12 media containing advanced DMEM/F-12 (Invitrogen, cat. 12634028), 4.9% defined fetal bovine serum, heat inactivated (HyClone Laboratories Inc., Logan, UT, cat. SH30070.03HI), 389 ng/mL hydrocortisone (Sigma-Aldrich, cat. H4001), 9.7 ng/mL human EGF recombinant protein (Invitrogen, cat. PHG0313), 23.4 microg/mL adenine (Sigma-Aldrich, cat. A2786), 97.3 U/mL penicillin-streptomycin (Invitrogen, cat. 15140122), 1.9 mM L-glutamine (Invitrogen, cat. 25030081), and 9.7 microM Y-27632 dihydrochloride (Tocris Bioscience, Bristol, United Kingdom, cat. 1254). The PDCs were cultured in complete DMEM/F12 media without 10 microM Y-27632 dihydrochloride for at least two passages prior to the screen. The established cell lines NCI-H1341 and […] were cultured in DMEM/F-12, HEPES (Invitrogen, cat. 11330032), 5% defined fetal bovine serum (HyClone Laboratories Inc., cat. SH30070.03), ITS premix universal culture supplement [insulin (5 microg/mL), transferrin (5 microg/mL), and selenious acid (5 ng/mL)] […]

[1] = curve of first compound, second compound 0.1 µM
[2] = curve of first compound, second compound 0.316 µM
[3] = curve of first compound, second compound 1 µM
[4] = curve of first compound, second compound 3.16 µM
[5] = curve of first compound, second compound 10 µM
[6] = second compound 0.1 µM, first compound 0.0316 µM
[7] = second compound 0.1 µM, first compound 0.1 µM
[8] = second compound 0.1 µM, first compound 0.316 µM
[9] = second compound 0.1 µM, first compound 1 µM
[10] = second compound 0.1 µM, first compound 3.16 µM
[11] = second compound 0.1 µM, first compound 10 µM
[12] = second compound 0.316 µM, first compound 0.0316 µM
[13] = second compound 0.316 µM, first compound 0.1 µM
[14] = second compound 0.316 µM, first compound 0.316 µM
[15] = second compound 0.316 µM, first compound 1 µM
[16] = second compound 0.316 µM, first compound 3.16 µM
[17] = second compound 0.316 µM, first compound 10 µM
[18] = second compound 1 µM, first compound 0.0316 µM
[19] = second compound 1 µM, first compound 0.1 µM
[20] = second compound 1 µM, first compound 0.316 µM
[21] = second compound 1 µM, first compound 1 µM
[22] = second compound 1 µM, first compound 3.16 µM
[23] = second compound 1 µM, first compound 10 µM
[24] = second compound 3.16 µM, first compound 0.0316 µM
[25] = second compound 3.16 µM, first compound 0.1 µM
[26] = second compound 3.16 µM, first compound 0.316 µM
[27] = second compound 3.16 µM, first compound 1 µM
[28] = second compound 3.16 µM, first compound 3.16 µM
[29] = second compound 3.16 µM, first compound 10 µM
[30] = second compound 10 µM, first compound 0.0316 µM
[31] = second compound 10 µM, first compound 0.1 µM
[32] = second compound 10 µM, first compound 0.316 µM
[33] = second compound 10 µM, first compound 1 µM
[34] = second compound 10 µM, first compound 3.16 µM
[35] = second compound 10 µM, first compound 10 µM
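Throughout, for viability, T/C: compound exposure lasted 7 days; 100% = DMSO vehicle control growth.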

Row | SMILES | IC50 [1] | IC50 [2] | IC50 [3] | IC50 [4] | IC50 [5] | viability, T/C [6] | viability, T/C [7] | viability, T/C [8] | viability, T/C [9] | viability, T/C [10] | viability, T/C [11] | viability, T/C [12] | viability, T/C [13] | viability, T/C [14] | viability, T/C [15] | viability, T/C [16] | viability, T/C [17] | viability, T/C [18] | viability, T/C [19] | viability, T/C [20] | also measured
1 | COc1cc(C2c3cc4c(cc3C(OC3OC5COC(C)OC5C(O)C3O)C3COC(=O)C23)OCO4)cc(OC)c1O (configuration not stated) + CC(CO)NC(=O)c1cc(-c2ccc(Cl)cc2)nn(-c2cnn(C)c2)c1=O | > 10 µM | 8.09 µM | > 10 µM | 6.63 µM | 7.38 µM | 111% | 117% | 80% | 62.9% | 66% | 50.9% | 95.4% | 102% | 85.6% | 67.8% | 72.8% | 44.6% | 109% | 104% | 81.9% | viability, T/C [21]: 62.6%; viability, T/C [22]: 60.5%; viability, T/C [23]: 51.8%; viability, T/C [24]: 103%; viability, T/C [25]: 102%; viability, T/C [26]: 80%; viability, T/C [27]: 74.5%; viability, T/C [28]: 59.9%; viability, T/C [29]: 44.5%; viability, T/C [30]: 105%; viability, T/C [31]: 98.8%; viability, T/C [32]: 81.7%; viability, T/C [33]: 73.5%; viability, T/C [34]: 59.7%; viability, T/C [35]: 46.4%
2 | CC(CO)NC(=O)c1cc(-c2ccc(Cl)cc2)nn(-c2cnn(C)c2)c1=O (configuration not stated) | – | – | – | – | – | – | – | – | – | – | – | – | – | – | – | – | – | – | – | – | viability, T/C (compound 0.1 µM): 98.9% [middle of 20 runs]; IC50 (compound alone, run of 05/31/2022): > 10 µM
3 | COc1ccc([C@@H](O)c2cc(-c3ncnc4cc(N5CCOCC5)ccc34)c(F)cc2Cl)nn1 + Cc1cncc(-c2nc(NCCc3c[nH]c4ccccc34)c3ncn(C(C)C)c3n2)c1 | 3.12 µM | 7.28 µM | 4.2 µM | 6.93 µM | 9.85 µM | 113% | 114% | 108% | 72.2% | 51.4% | 45.6% | 110% | 105% | 102% | 77.8% | 60.8% | 45.8% | 111% | 112% | 116% | viability, T/C [21]: 87.9%; viability, T/C [22]: 53.8%; viability, T/C [23]: 42.5%; viability, T/C [24]: 103%; viability, T/C [25]: 113%; viability, T/C [26]: 88.5%; viability, T/C [27]: 82.6%; viability, T/C [28]: 54.2%; viability, T/C [29]: 47.8%; viability, T/C [30]: 82.2%; viability, T/C [31]: 85.7%; viability, T/C [32]: 89.1%; viability, T/C [33]: 74.8%; viability, T/C [34]: 61.5%; viability, T/C [35]: 49.5%
4 | NS(=O)(=O)OCC1CC(n2ccc3c(NC4CCc5ccccc54)ncnc32)CC1O (configuration not stated) + Cc1ccccc1N=Nc1ccc(NC(=O)c2ccnn2C)c(C)c1 | > 10 µM | > 10 µM | > 10 µM | > 10 µM | > 10 µM | 101% | 103% | 103% | 108% | 106% | 82.2% | 105% | 104% | 97.2% | 103% | 93.9% | 80.2% | 92.9% | 102% | 101% | viability, T/C [21]: 101%; viability, T/C [22]: 95.7%; viability, T/C [23]: 79.7%; viability, T/C [24]: 97.1%; viability, T/C [25]: 96.5%; viability, T/C [26]: 89.3%; viability, T/C [27]: 89.7%; viability, T/C [28]: 88.8%; viability, T/C [29]: 73.3%; viability, T/C [30]: 91.3%; viability, T/C [31]: 80%; viability, T/C [32]: 89.8%; viability, T/C [33]: 88.2%; viability, T/C [34]: 83.6%; viability, T/C [35]: 69.6%
